Experimental data as given in US20200121604A1, “SOLID FOSMETPANTOTENATE FORMULATIONS” (Retrophin, Inc., priority 2017, published 2020).

Assays:
[1] = Chemical stability of formulations, 30° C. and 65% relative humidity, closed containers, 12 weeks, total impurities by HPLC; assay type: physicochemical
Experimental: A stability study was performed to assess the stability of fosmetpantotenate in the following formulations: 1 g fosmetpantotenate (“drug only”; containing approximately 10% acetic acid); 75 mg fosmetpantotenate EA capsules (10% ethyl acetate); 75 mg fosmetpantotenate LG-90 capsules (38% laurylglycol 90); fosmetpantotenate MCC granulation, as described in Example 2; and fosmetpantotenate mannitol granulation, as described in Example 3; and 25:75 fosmetpantotenate:HPMCAS-L Spray Dried Dispersion (SDD) granulation, as described in Example 24. Additionally, fosmetpantotenate without solid excipient or solvent (“drug only”) was stored closed in borosilicate glass vials. Formulations contained in soft gel capsules were stored in closed HDPE bottles, and solid fosmetpantotentate granulation formulations were stored in closed foil-foil packaging. Stability samples were stored at ca. −20° C. (control samples) and at 30° C. and 65% relative humidity in closed containers for 12 weeks.
The amount of total impurities was determined via integration of HPLC peak areas within 3 days after the formulations were prepared and before beginning storage (time=0 weeks). The amount of total impurities was measured again after 2 weeks, 4 weeks, 6 weeks, 8 weeks, and 12 weeks of storage. […]

[2] = Accelerated stability of 10% drug loaded formulations, 25° C./60% RH, total related substances by HPLC; assay type: physicochemical; conditions: 10% drug loading
Experimental: Fosmetpantotenate was thinned with ethyl acetate (EtOAc) at a 1:1 weight/weight ratio, and then blended with each solid excipient using a mortar and pestle on the 0.1 g scale of fosmetpantotenate, i.e., 0.2 g 50% (fosmetpantotenate/EtOAc)+0.9 g solid. The resulting materials were dried overnight at room temperature in a HEPA hood to remove excess EtOAc.
The formulations were stored under accelerated stability conditions (25° C./60% relative humidity (RH)) for 4 weeks. Some samples were stored in “open” conditions, i.e., exposed to air; other samples were stored in closed containers. The amount of impurities was measured at beginning of storage (t=0), after 2 weeks of storage (t=2 weeks), and after 4 weeks of storage (t=4 weeks). The amount of impurities (total related substances, expressed as a percentage) was determined using the methods described in Example 26 below.
The amount of total impurities was determined via integration of HPLC peak areas within 3 days after the formulations were prepared and before beginning storage (time=0 weeks). The amount of total impurities was measured again after 2 weeks, 4 weeks, 6 weeks, 8 weeks, and 12 weeks of storage. Capsule samples for analysis were prepared by dissolving 5 capsules in a volumetric flask with H2O/ACN 50/50 (v/v) containing 0.1% (v/v) HCOOH. “Drug only” and granulation samples were prepared by adding the sample directly into a volumetric flask and diluting with H2O/ACN 50/50.

[3] = Chemical stability of fosmetpantotenate with and without acetic acid, alone and with MCC, 30° C./65% RH, reverse-phase HPLC; assay type: physicochemical; conditions: weight percent; for Phenol (%): main degradant
Experimental: Fosmetpantotenate was prepared and purified as in Examples 1 (“with acetic acid”) and Example 28 (“without acid”). Flowability and stability were analyzed for the acetic acid-containing fosmetpantotenate and the “without acid” fosmetpantotenate, alone and when formulated with MCC.
For the MCC formulations, fosmetpantotenate was diluted 1:1 (w:w) with ethyl acetate (HPLC grade, EMD) to generate a solution of viscosity suitable for wet granulation. Porous MCC (Avicel® PH200) was sieved via 120 mesh (125 μm opening) to remove fine particles and then placed in a Freund-Vector GMX-LAB Micro high shear granulator (1 L stainless steel bowl). The impeller speed was kept at 125 rpm during the process. 40 g of 50 wt % fosmetpantotenate ethyl acetate solution (contains 20 g fosmetpantotenate) was added into 80 g substrate at approximately 8 g/min drop-wise via a glass transfer pipette to achieve a 20:80 fosmetpantotenate:MCC ratio (i.e., 20% drug loading by weight). The resulting materials were agitated for an additional 10 minutes followed by tray drying overnight at room temperature to facilitate removal of ethyl acetate.
For the stability analysis, samples of fosmetpantotenate were subdivided and transferred into separate 20 mL clear scintillation vials (about 1 g sample per vial). Closed vials were then placed individually into 5″×7″ foil pouches (CADPAK N-HD, WVTR 0.0005 g/100 in^2/day at 90% RH 40° C.). followed by heat sealing the pouches without desiccant inside. Fosmetpantotenate powder samples were weighed (3 g) and placed directly into the same foil pouches described above, and heat sealed without desiccant inside. Closed samples were stored at 30° C./65% RH and measured after 0, 2, 4, and 8 weeks.
Measurement of impurities was performed by reverse-phase HPLC, utilizing the methods in Table 10. Water:acetonitrile 95:5 (v:v) with 0.005% phosphoric acid was used to extract the API (fosmetpantotenate) from the granulation at concentration of 0.75 mg/mL on an active basis. The sample suspension was ultrasonicated for 10 minutes to ensure complete API extraction followed by filtration using 0.45 μm PTFE filters to remove insoluble materials (i.e., MCC in the granulation samples). The filtrates were then transferred to individual vials and analyzed by HPLC.

[4] = reference substances; cited from earlier work
[5] = system: wild-type and PanK2-deficient IRM32 cells; experiment: Half-life of Coenzyme A in cells treated with labeled fosmetpantotenate or pantothenic acid; assay type: cell-based
Experimental: The half-life of Coenzyme A (CoA) was determined for both wild-type and PanK2-deficient IRM32 cells.
Stable isotopically labeled pantothenic acid (vitamin B5) and fosmetpantotenate, a compound currently in a Phase 3 clinical trial for the treatment of […], were prepared. The PanK2-deficient cell line was treated with labeled fosmetpantotenate (100 μM) while the parental IRM32 (WT) line was treated with labeled pantothenic acid. After 24 h the media was changed to complete media and the cells were harvested at various time points. The fraction of labeled CoA, both free and total, with respect to time 0 was calculated to determine the half-life of CoA under each of these conditions.

Structure (SMILES): COC(=O)CCNC(=O)[C@H](O)C(C)(C)COP(=O)(N[C@@H](C)C(=O)OC)Oc1ccccc1 (stereo partly drawn) [fosmetpantotenate, methyl 3-((2R)-2-hydroxy-4-(((((S)-1-methoxy-1-oxopropan-2-yl)amino)(phenoxy)phosphoryl)oxy)-3,3-dimethylbutanamido)propanoate]
- average amount of degradation per week [1]: 2.6%
- Total % Related Substances ([2]; 25° C./60% RH, t = 2 weeks, Closed): 5.76%
- Total % Related Substances ([2]; 25° C./60% RH, t = 2 weeks, Open): 5.94%
- Total % Related Substances ([2]; 25° C./60% RH, t = 4 weeks, Closed): 6.39%
- Total % Related Substances ([2]; 25° C./60% RH, t = 4 weeks, Open): 6.29%
- Total % Related Substances ([2]; t = 0): 4.80%

Structure (SMILES): COC(=O)CCNC(=O)[C@H](O)C(C)(C)COP(=O)(N[C@@H](C)C(=O)OC)Oc1ccccc1 (some centres unmarked) [Fosmetpantotenate, no acid]
- Phenol (%) ([3]; 30° C./65% RH closed, t = 2 wk): 0.20%
- Phenol (%) ([3]; 30° C./65% RH closed, t = 4 wk): 0.42%
- Phenol (%) ([3]; 30° C./65% RH closed, t = 8 wk): 1.62%
- Phenol (%) ([3]; t = 0): 0.12%
- Impurities, excluding phenol (%) ([3]; 30° C./65% RH closed, t = 2 wk): 3.69%
- Total impurities (%) ([3]; 30° C./65% RH closed, t = 2 wk): 4.44%
- Impurities, excluding phenol (%) ([3]; 30° C./65% RH closed, t = 4 wk): 7.01%
- Total impurities (%) ([3]; 30° C./65% RH closed, t = 4 wk): 8.54%
- Impurities, excluding phenol (%) ([3]; 30° C./65% RH closed, t = 8 wk): 12.82%
- Total impurities (%) ([3]; 30° C./65% RH closed, t = 8 wk): 17.73%
- Impurities, excluding phenol (%) ([3]; t = 0): 2.28%
- Total impurities (%) ([3]; t = 0): 2.75%

Structure (SMILES): O [Water]
- Viscosity (Cp) [4]: 1 Cp

Structure (SMILES): CC(C)(COP(=O)(O)OP(=O)(O)OC[C@H]1O[C@@H](n2cnc3c(N)ncnc32)[C@H](O)[C@@H]1OP(=O)(O)O)[C@@H](O)C(=O)NCCC(=O)NCCS [CoA, Coenzyme A]
- half-life of CoA, PanK2-deficient versus WT cells [5]: somewhat shorter in PanK2-deficient cells than in WT cells
